Source: US20100112040A1, “Preparation of Heavy Metal-Containing Nano-Liposomes and their Uses in Medical Therapy” (S.B. BIOTECHNOLOGIES LTD., priority 2006, published 2010)
Where two headings read alike, the source gives them in different places.

Legend:
[1] = 200 μl i.p. of 2 mg/ml gold, 24 hours
Procedure: (§1) Balb/C mice which had tumors on their thighs (KHJJ line, breast cancer) were used in these experiments. The mice were injected i.p. with 200 μl of liposomes containing 2 mg of gold atoms per/ml solution, and after 24 hours the animals were dissected and various internal organs were harvested, which included the tumor, brain, heart, lungs, spleen, liver, kidneys, and blood. The organs were rinsed and prepared for ICP-MS analysis. In control experiments, mice were injected with a solution containing 2 mg of gold/ml without confinement in liposomes.
1. A solution of gold chloride of 2 mg/ml (2000). The gold was not confined in liposomes. 2. A gold-containing liposome solution (2000) of gold content of 2 mg/ml.

[2] = 200 μl i.p., 2 mg of gold/ml
Procedure: as §1

[Cl][Au]([Cl])[Cl] [gold chloride solution, gold chloride]
Gold atoms per cell ([1]; Bladder): 1.30E+10 atoms per cell
Gold atoms per cell ([1]; Blood): 1.37E+08 atoms per cell
Gold atoms per cell ([1]; Brain): 1.62E+07 atoms per cell
Gold atoms per cell ([1]; Heart): 1.63E+09 atoms per cell
Gold atoms per cell ([1]; Kidneys): 1.58E+09 atoms per cell
Gold atoms per cell ([1]; Liver): 1.88E+08 atoms per cell
Gold atoms per cell ([1]; Lungs): 1.36E+08 atoms per cell
Gold atoms per cell ([1]; Spleen): 3.34E+08 atoms per cell
Gold atoms per cell ([1]; Tumor): 1.10E+08 atoms per cell
survival of injected mice (toxicity of gold) [2]: died after 24 hours
